pIC50: −log10 of the molar value. Where two headings read alike, the source gives them in different places. Blank lines part the entries; values can stand above or below the molecule they belong to.
Key:
[1] = test system: IL-2 production by Jurkat E6-1 cells; experiment: Cytokine (IL-2) release from PMA pre-treated, anti-CD28 stimulated Jurkat E6-1 cells (DELFIA); assay type: cell-based; details: for pIC50: anti-CD28, 18 hours, read-out: IC50 for the inhibition of anti-CD28 induced IL-2 production by Jurkat E6-1 cells
Procedure: Jurkat E6-1 cell line was obtained from American Tissue Culture Collection (ATCC, Rockville, USA). The cells were pre-treated with 3 ng/ml phorbol myristate acetate (PMA) for three hours, washed and exposed to dose ranges of the compound to be tested followed by the addition of 5 μg/ml anti-CD28.
After 18 hours incubation at 37° C. and 5% CO2, cell culture supernatants were harvested for determination of IL-2 secretion by Dissociation Enhanced Lanthanide Fluorescence Immuno Assay (DELFIA). The effect of compound on cell cytotoxicity was determined using a redox potential sensitive dye, resazurin. Effects on protein synthesis were determined by investigation of [^3H] leucine uptake.

recombinant abl kinase = recombinant abl kinase (Homo sapiens, UniProt P00519); experiment: Inhibition of tyrosine kinase activity (abl kinase, LANCE time resolved fluorescence); assay type: biochemical; details: for pIC50: abl kinase, peptide 6-20 p34cdc substrate
Chain of recombinant abl kinase (P00519 whole entry): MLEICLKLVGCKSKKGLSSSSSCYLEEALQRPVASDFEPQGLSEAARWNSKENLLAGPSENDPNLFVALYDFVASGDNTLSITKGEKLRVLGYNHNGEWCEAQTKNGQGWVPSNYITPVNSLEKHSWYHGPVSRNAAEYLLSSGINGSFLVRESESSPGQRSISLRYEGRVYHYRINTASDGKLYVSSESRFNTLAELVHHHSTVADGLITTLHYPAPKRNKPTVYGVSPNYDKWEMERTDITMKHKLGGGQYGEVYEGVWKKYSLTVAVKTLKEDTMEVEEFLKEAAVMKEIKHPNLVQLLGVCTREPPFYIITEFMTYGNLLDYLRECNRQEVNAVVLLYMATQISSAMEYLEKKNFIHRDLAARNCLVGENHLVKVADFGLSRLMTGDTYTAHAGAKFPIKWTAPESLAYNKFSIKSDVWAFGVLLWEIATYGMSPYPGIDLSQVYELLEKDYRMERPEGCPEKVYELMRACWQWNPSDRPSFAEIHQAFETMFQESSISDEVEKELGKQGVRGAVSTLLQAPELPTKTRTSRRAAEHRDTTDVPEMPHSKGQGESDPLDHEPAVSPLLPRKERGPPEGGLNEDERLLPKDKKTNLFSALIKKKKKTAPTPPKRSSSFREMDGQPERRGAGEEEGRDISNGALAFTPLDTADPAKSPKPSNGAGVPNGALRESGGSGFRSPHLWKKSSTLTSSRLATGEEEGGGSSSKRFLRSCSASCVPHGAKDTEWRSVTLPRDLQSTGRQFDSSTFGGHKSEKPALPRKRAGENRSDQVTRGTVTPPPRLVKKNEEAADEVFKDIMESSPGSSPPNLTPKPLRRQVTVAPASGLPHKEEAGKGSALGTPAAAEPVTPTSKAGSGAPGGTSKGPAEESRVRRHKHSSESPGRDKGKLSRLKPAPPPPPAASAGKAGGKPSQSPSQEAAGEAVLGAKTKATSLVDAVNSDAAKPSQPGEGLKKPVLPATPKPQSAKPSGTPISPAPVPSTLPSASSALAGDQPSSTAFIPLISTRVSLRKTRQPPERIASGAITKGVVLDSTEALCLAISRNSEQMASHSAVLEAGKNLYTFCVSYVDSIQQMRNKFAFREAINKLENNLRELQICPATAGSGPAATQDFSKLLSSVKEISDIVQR
Excerpt: Phosphorylation of the peptide substrate was detected using a non-separation time resolved fluorescence assay (LANCE™) using anti-phosphotyrosine conjugated europium and streptavidin conjugated allophycocyanin (APC).

[2] = test system: TNF-α secretion by monocytes; experiment: Cytokine (TNF-α) release from LPS stimulated monocytes (DELFIA); assay type: cell-based; details: Homo sapiens, Monocyte
Procedure: The effect of compound (Ia) on TNF-α release was investigated using a previously described method (Bakouche, O. et al., (1992), J. Immunol: 14, 84-91). Human monocytes were purified by elutriation from Buffy coats obtained from normal healthy donors after the separation of peripheral blood mononuclear cells (PBMC) on Lymphoprep. The monocytes were suspended in RPMI 1640 with 5% FBS and exposed to dose ranges of the compound to be tested followed by the addition of 1 ng/ml LPS. After incubation for 18 hours at 37° C. and 5% CO2 cell culture supernatants were harvested and stored at −70° C. Effects on TNF-α release were determined using a DELFIA.

[3] = test system: IL2 production by T cells; experiment: Cytokine (IL-2) release from purified T cells stimulated with anti-CD3 and anti-CD28 (DELFIA); assay type: cell-based; details: Homo sapiens, T-cell
Excerpt: The effect of compound (Ia) on IL-2 release was investigated using a previously described method (Van Cool S. W. et al., (1993) J. Immunol. 150: 3254-3263). T cells were purified by depletion of B cells and monocytes from Buffy coats obtained from normal healthy donors following separation of human peripheral blood mononuclear cells (PBMC) on Lymphoprep. Purified T cells were suspended in RPMI 1640 supplemented with 5% fetal bovine serum (FBS) and aliquoted into 96 well plates coated with anti-CD3. Cells were exposed to dose ranges of the compound to be tested followed by the addition of 5 μg/ml anti-CD28 and incubated for 18 hours at 37° C. and 5% CO2. IL-2 secretion in cell culture supernatants was determined using IL-2 DELFIA.

T cells = experiment: Toxicity to T cells; assay type: cell-based, human; details: 0.06 to 7 μM
IL-2 = IL-2 release from PHA and LPS stimulated whole blood (DELFIA); assay type: cell-based; details: Homo sapiens
Procedure: (§1) Whole blood samples obtained from up to seven normal healthy volunteers were diluted in an equal volume of RPMI 1640 with 5% FBS and exposed to dose ranges of compound (Ia) followed by the addition of 10 μg/ml phytohaemagglutinin (PHA) and 100 ng/ml LPS. After incubation for 48 hours at 37° C. and 5% CO2 serum samples were harvested for determination of effect on IL-2 and TNF-α secretion using DELFIAs specific for each cytokine respectively.

TNF-α = TNF-α release from PHA and LPS stimulated whole blood (DELFIA); assay type: cell-based; details: Homo sapiens
Procedure: as §1

[4] = Homo sapiens, Jurkat E6.1, PMA pre-treated

pIC50 [1, 4]: 5.60
SMILES: CO[C@H]1[C@@H](O)c2c(O)cccc2C2=C3CCC(=O)c4c(O)ccc(c43)[C@H]21 [Compound (Ib)]

pIC50 [1, 4]: 5.18
pIC50 (recombinant abl kinase): < 6.00
SMILES: COc1cccc2c1C(O)C(OC)C1C2=C2CCC(=O)c3c(O)ccc1c32 (stereo not drawn) [Compound 4]

pIC50 (recombinant abl kinase): < 6.00
SMILES: COC1C(O)c2c(O)cccc2C2=C3CCC(=O)c4c(O)c(Cl)cc(c43)C21 (stereo not drawn) [Compound 8, 5-Chloro-4,8,9-trihydroxy-7-methoxy-1,6b,7,8-tetrahydro-2H-benzo[j]fluoranthen-3-one]

pIC50 ([2]; 18 hours, read-out: IC50 for inhibition of LPS induced TNF-α secretion by monocytes): 6.38
pIC50 ([3]; 18 hours, read-out: IC50 for inhibition of anti-CD3 and anti-CD28 induced IL2 production by T cells): 6.92
pIC50 (IL-2; Donor 1, read-out: IC50 Inhibition of IL-2): 6.66
pIC50 (IL-2; Donor 2, read-out: IC50 Inhibition of IL-2): 5.92
pIC50 (IL-2; Donor 3, read-out: IC50 Inhibition of IL-2): 6.37
pIC50 (IL-2; Donor 4, read-out: IC50 Inhibition of IL-2): < 5.57
pIC50 (IL-2; Donor 5, read-out: IC50 Inhibition of IL-2): > 6.40
pIC50 (IL-2; Donor 6, read-out: IC50 Inhibition of IL-2): > 6.40
pIC50 (TNF-α; Donor 1, read-out: IC50 Inhibition of TNF-α): 4.85
pIC50 (TNF-α; Donor 2, read-out: IC50 Inhibition of TNF-α): 4.85
pIC50 (TNF-α; Donor 3, read-out: IC50 Inhibition of TNF-α): 6.15
pIC50 (TNF-α; Donor 4, read-out: IC50 Inhibition of TNF-α): < 5.57
pIC50 (TNF-α; Donor 5, read-out: IC50 Inhibition of TNF-α): 5.28
pIC50 (TNF-α; Donor 6, read-out: IC50 Inhibition of TNF-α): 5.52
pIC50 [1, 4]: 6.47
concentrations at which phosphorylation of the peptide by abl kinase was inhibited (recombinant abl kinase): 0.001 to 5.2 µM
inhibition at 0.001 µM (recombinant abl kinase; 0.001 μM): 39%
inhibition at 0.01 µM (recombinant abl kinase; 0.01 μM): 56.2%
inhibition at 0.081 µM (recombinant abl kinase; 0.081 μM): 86.3%
inhibition at 0.65 µM (recombinant abl kinase; 0.65 μM): 98.6%
inhibition at 5.2 µM (recombinant abl kinase; 5.2 μM): 100%
pIC50 (recombinant abl kinase): 8.22
SMILES: CO[C@@H]1[C@@H]2C(=C3CCC(=O)c4c(O)ccc2c43)c2cccc(O)c2[C@@H]1O (relative stereo) [Compound (Ia)]
inhibition at 0.09 µM ([2]; 0.09 µM, read-out: % Inhibition of LPS induced TNF-a by monocytes): 19%
inhibition at 0.18 µM ([2]; 0.18 µM, read-out: % Inhibition of LPS induced TNF-a by monocytes): 32.1%
inhibition at 0.36 µM ([2]; 0.36 µM, read-out: % Inhibition of LPS induced TNF-a by monocytes): 48.1%
inhibition at 0.7 µM ([2]; 0.7 µM, read-out: % Inhibition of LPS induced TNF-a by monocytes): 57.6%
inhibition at 1.4 µM ([2]; 1.4 µM, read-out: % Inhibition of LPS induced TNF-a by monocytes): 73.2%
inhibition at 2.9 µM ([2]; 2.9 µM, read-out: % Inhibition of LPS induced TNF-a by monocytes): 80%
inhibition at 5.7 µM ([2]; 5.7 µM, read-out: % Inhibition of LPS induced TNF-a by monocytes): 89%
inhibition at 0.056 µM ([3]; 0.056 µM, read-out: % Inhibition of anti-CD-28 and Anti-CD3 induced IL-2 by T cells): 29.8%
inhibition at 0.11 µM ([3]; 0.11 µM, read-out: % Inhibition of anti-CD-28 and Anti-CD3 induced IL-2 by T cells): 47.3%
inhibition at 0.22 µM ([3]; 0.22 µM, read-out: % Inhibition of anti-CD-28 and Anti-CD3 induced IL-2 by T cells): 106%
inhibition at 0.44 µM ([3]; 0.44 µM, read-out: % Inhibition of anti-CD-28 and Anti-CD3 induced IL-2 by T cells): 88.3%
inhibition at 0.89 µM ([3]; 0.89 µM, read-out: % Inhibition of anti-CD-28 and Anti-CD3 induced IL-2 by T cells): 98.6%
inhibition at 1.8 µM ([3]; 1.8 µM, read-out: % Inhibition of anti-CD-28 and Anti-CD3 induced IL-2 by T cells): 100%
inhibition at 3.6 µM ([3]; 3.6 µM, read-out: % Inhibition of anti-CD-28 and Anti-CD3 induced IL-2 by T cells): 100%
inhibition at 7.1 µM ([3]; 7.1 µM, read-out: % Inhibition of anti-CD-28 and Anti-CD3 induced IL-2 by T cells): 100%
toxicity to T cells (T cells): not toxic
inhibition at 0.056 µM ([1]; Homo sapiens, Jurkat E6.1, 0.056 μM, read-out: % Inhibition of anti-CD28 induced IL-2 by PMA pre-treated Jurkat E6-1): 29%
inhibition at 0.11 µM ([1]; Homo sapiens, Jurkat E6.1, 0.11 μM, read-out: % Inhibition of anti-CD28 induced IL-2 by PMA pre-treated Jurkat E6-1): 30.5%
inhibition at 0.22 µM ([1]; Homo sapiens, Jurkat E6.1, 0.22 μM, read-out: % Inhibition of anti-CD28 induced IL-2 by PMA pre-treated Jurkat E6-1): 36%
inhibition at 0.44 µM ([1]; Homo sapiens, Jurkat E6.1, 0.44 μM, read-out: % Inhibition of anti-CD28 induced IL-2 by PMA pre-treated Jurkat E6-1): 57.8%
inhibition at 0.89 µM ([1]; Homo sapiens, Jurkat E6.1, 0.89 μM, read-out: % Inhibition of anti-CD28 induced IL-2 by PMA pre-treated Jurkat E6-1): 85.4%
inhibition at 1.8 µM ([1]; Homo sapiens, Jurkat E6.1, 1.8 μM, read-out: % Inhibition of anti-CD28 induced IL-2 by PMA pre-treated Jurkat E6-1): 92.2%
inhibition at 3.6 µM ([1]; Homo sapiens, Jurkat E6.1, 3.6 μM, read-out: % Inhibition of anti-CD28 induced IL-2 by PMA pre-treated Jurkat E6-1): 89.1%
inhibition at 7.1 µM ([1]; Homo sapiens, Jurkat E6.1, 7.1 μM, read-out: % Inhibition of anti-CD28 induced IL-2 by PMA pre-treated Jurkat E6-1): 91.5%

pIC50 (recombinant abl kinase): < 6.00
SMILES: COC1C(O)c2c(O)cccc2C2=C3CCC(O)c4c(O)ccc(c43)C21 (single isomer, unassigned) [Compound 2b]

pIC50 [1, 4]: < 5.83
pIC50 (recombinant abl kinase): < 6.00
SMILES: COC1C(O)c2c(O)cccc2C2=C3CCC(=NO)c4c(O)ccc(c43)C21 (stereo not drawn) [Compound 7, 4,8,9-Trihydroxy-7-methoxy-1,6b,7,8-tetrahydro-2H-benzo[j]fluoranthen-3-one oxime]

pIC50 [1, 4]: 5.53
pIC50 (recombinant abl kinase): < 6.00
SMILES: COC1C(O)c2c(O)cccc2C2=C3CCC(O)c4c(O)ccc(c43)C21 (single isomer, unassigned) [Compound 2a]

pIC50 [1, 4]: < 5.21
pIC50 (recombinant abl kinase): 5.63
SMILES: CO[C@H]1[C@H](OC)c2c(O)cccc2C2=C3CCC(=O)c4c(O)ccc(c43)[C@@H]21 (relative stereo) [Compound 11a]

pIC50 ([1]; PMA pre-treated): 5.37
SMILES: COC1c2c(O)cccc2C2=C3CCC(=O)c4c(O)ccc(c43)C2C1OC (stereo not drawn) [Compound (III)]

pIC50 [1, 4]: < 5.10
pIC50 (recombinant abl kinase): < 5.30
SMILES: CCO[C@@H]1c2c(O)cccc2C2=C3CCC(=O)c4c(O)ccc(c43)[C@@H]2[C@H]1OC [Compound 10a]

pIC50 [1, 4]: 4.96
pIC50 (recombinant abl kinase): 6.88
SMILES: CCCOC1c2c(O)cccc2C2=C3CCC(=O)c4c(O)ccc(c43)C2C1OC (stereo not drawn) [Compound 9, 4,9-Dihydro-7-methoxy-8-propoxy-1,6b,7,8-tetrahydro-2H-benzo[j]fluoranthen-3-one]

SMILES: COC1C(O)c2c(O)cccc2C23OC24CCC(=O)c2c(O)ccc(c24)C13 (stereo not drawn) [Compound 3]
pIC50 [1, 4]: < 5.02
pIC50 (recombinant abl kinase): 6.15

pIC50 [1, 4]: 5.63
pIC50 (recombinant abl kinase): 6.56
SMILES: CCOC1c2c(O)cccc2C2=C3CCC(=O)c4c(O)ccc(c43)C2C1OC (stereo not drawn) [Compound 10, 8-Ethoxy-4,9-dihydroxy-7-methoxy-1,6b,7,8-tetrahydro-2H-benzo[j]fluoranthen-3-one]

pIC50 [1, 4]: 5.89
pIC50 (recombinant abl kinase): < 6.00
SMILES: COC1C(O)c2c(O)cccc2C2=C3CCC(NC4CC4)c4c(O)ccc(c43)C21 (stereo not drawn) [Compound 5, 3-Cyclopropylamino-7-methoxy-1,2,3,6b, 7,8-hexahydrobenzo[d]fluoranthen-4,8,9-triol]

pIC50 ([1]; PMA pre-treated): 5.97
pIC50 (recombinant abl kinase): 7.35
SMILES: COC1c2c(O)cccc2C2=C3CCC(=O)c4c(O)ccc(c43)C2C1OC (stereo not drawn) [Compound 11, 4,9-Dihydroxy-7,8-dimethoxy-1,6b,7,8-tetrahydro-2H-benzo[j]fluroanthen-3-one]

pIC50 [1, 4]: < 5.30
pIC50 (recombinant abl kinase): < 5.30
SMILES: COC1C(=O)c2c(O)cccc2C2=C3CCC(=O)c4c(O)ccc(c43)C21 (stereo not drawn) [Compound (II)]
